Series [1] has as its system AsPC-1 subcutaneous xenograft. Nature of the series: Antitumor activity on AsPC-1 subcutaneous xenograft model. Format: in vivo, nude mice. As to the method: The human pancreatic carcinoma cell line, AsPC-1, was cultured and the cells were injected subcutaneously in a flank of 60 mice. Three days later, the tumors could be felt in the mice. When tumors reached approximately 100-200 mg (mm^3), total of fifty one (51) tumor-bearing mice were randomly selected and sorted into one of six (6) groups. Vehicle (corn oil) treated mice were used as negative controls. Compound 1 combined with gemcitabine or paclitaxel were administered orally once a day and/or I.V. twice a week for four (4) weeks. Tumor measurements were recorded once a week using hand-held calipers and Visualsonic Vevo 2100 image system. Individual mouse weights were taken once a week during dosing. Mice were monitored daily for signs of toxicity and morbidity; any abnormal findings were recorded. The study was terminated four (4) weeks after initiation of drug administration.
D. Human Pancreatic Carcinoma Xenograft Models: • 1. To create the subcutaneous xenograft model, athymic female nude mice (4-6 weeks old) were subcutaneously inoculated with 1×10^7 AsPC-1 cells in 0.1 mL of serum-free DMEM medium containing 20% Matrigel (BD Biosciences, Bedford Mass.). • 2. Tumor-bearing animals were divided into the following 6 groups as table 1. • 3. The mice were monitored for activity and physical condition every day, and the determination of body weight and measurement tumor mass should be done once a week. Tumor image will be photed by digital camera and Visualsonic Vevo 2100 image system. Tumor mass is determined by caliper measurement in two perpendicular diameters of the implant and calculate using the formula […], where “a” stands for the long diameter and “b” is the short diameter.
a. Cell Injections: Mice were injected subcutaneously into the right lateral thorax with 1×10^7 viable human pancreatic carcinoma AsPC-1 Cells. […]
C. Tumor Measurements: The injection site of each animal was monitored one (1) time per week for signs of tumor growth. Throughout the study, the length (a) and width (b) of any tumors developed were measured in millimeters (mm) using vernier calipers, where a is the longer of the two (2) dimensions.
D. Evaluation of drug synergistic effect by tumor growth inhibition (TGI) and tumor inhibitory ratio (TIR): Volume of tumor growth inhibition (TGI) for each group was calculated according to the following formula: Tumor growth inhibition (%)=(1−[T−T0]/[C−C0])×100 • T and T0 are the mean tumor volumes on the end day and day 1 of treatment, respectively, for the experimental groups. […] The tumor inhibitory ratio was calculated by the formula: Tumor inhibitory ratio (%)=[(WControl−WTreated)/WControl]×100% • WTreated and WControl are the average tumor weights of the treated and control mice, respectively. […]

The conditions of series [2]: 50, 100, 200, 300, 450, and 600 mg-dose levels, given daily for 4 weeks; cited from earlier work.
A short description of series [3]: Body weight and hematological parameters in AsPC-1 xenograft study. The class given is in vivo. As to the method: A. Clinical Observations: Clinical observations of each study animal were performed and at least once daily (including weekends and holidays) for signs of morbidity, mortality and Test Article toxicity. Morbidity includes signs of illness such as, but not limited to, emaciation, dehydration, lethargy, hunched posture, unkempt appearance, dyspnea and urine or fecal staining. All abnormal findings will be recorded.
B. Animal Weights: Individual animal weights were taken one (1) time per week after/before dosing. Weights were recorded first prior to cell injections and continued for the duration of the study.
D. Hematological parameters: Cardiac blood was collected in EDTA for analyzing hematological parameters such as white blood cell count (WBC), red blood cell count (RBC), hemoglobin concentration (HB), hematocrit, mean corpuscular hemoglobin and concentration, platelet distribution width, platelet count, neutrophils, lymphocytes, monocytes, eosinophils. This was determined using hematology counter (Abbott Cell-Dyn 3700, IL).

The mark [4] stands for this setting: AsPC-1 xenograft, 28 days treatment.
[5] abbreviates: cardiac blood, AsPC-1 xenograft study, mean ± SEM, n = 3.

Consider 1 compound from patent US11406605B2, “Therapeutic compositions for treating pancreatic cancer” (Golden Biotechnology Corporation, priority 2017, dated 2022).

On to `COC1=C(OC)C(O)C(C/C=C(\C)CC/C=C(\C)CCC=C(C)C)C(C)C1=O` (stereo not drawn) [Compound 1, 4-hydroxy-2,3-dimethoxy-6-methyl-5-(3,7,11-trimethyldodeca-2,6,10-trienyl)cyclohex-2-enone], for which, in series [1] (setting [4]), the “Response, TCR (tumor volume of treatment-to-control ratios)” value was 0.55; the “TGI (volume of tumor growth inhibition)” value is 51%; the “TIR (tumor weight inhibitory ratio)” value is recorded as 45%. Also, the Tumor weight of excised tumors at the time of sacrifice in series [1] (after 28 days of treatments, A 120 mg/kg oral daily, G/P IV twice weekly, mean ± SEM) came out at 0.21 ± 0.07 g. The safety and tolerability entry in series [2] was “generally safe and well tolerated”. In addition, the “number of blood cells” value in series [3] (AsPC-1 xenograft) is “did not affect number of blood cells except for blood glucose”. In series [3] (setting [5]), the HCT is reported as 50.3 ± 1.8%, the HGB worked out at 15.6 ± 1.1 g/dL, the MCH is given as 15.3 ± 0.3 pg and the MCV is given as 53.6 ± 2.3 fL. For the same compound, in series [3] (setting [5]), the RBC was 9.93 ± 1.34 10^12/L and the WBC is recorded as 7.34 ± 0.71 10^9/L.
